target: T1, human TGR5 (Homo sapiens, UniProt Q8TDU6); assay: Cell-based TGR5 assay (cAMP generation, HTRF); details: HEK293 cells stably transfected with human TGR5; cAMP by HTRF; 30 minutes at 37° C.; read-out: pEC50 Human TGR5 (converted)
T1 construct: expressed in transfected cells; host or cells: HEK293
T1 sequence (Q8TDU6 1-330): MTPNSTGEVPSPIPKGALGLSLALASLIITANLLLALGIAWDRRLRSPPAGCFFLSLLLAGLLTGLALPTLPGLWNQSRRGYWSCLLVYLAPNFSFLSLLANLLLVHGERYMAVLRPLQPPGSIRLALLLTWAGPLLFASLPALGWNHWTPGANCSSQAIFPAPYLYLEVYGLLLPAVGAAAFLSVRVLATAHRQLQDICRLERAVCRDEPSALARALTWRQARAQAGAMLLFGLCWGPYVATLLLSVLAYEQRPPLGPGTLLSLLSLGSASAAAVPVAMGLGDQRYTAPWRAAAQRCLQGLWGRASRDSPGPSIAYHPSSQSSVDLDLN
In short: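 First, compounds in 3-fold serial dilution were placed in HBSS with 10 mM HEPES pH 7.4 and 0.5 mM IBMX. Next, human TGR5-expressing HEK293 cells were added and incubated 30 min at 37° C. Finally, cAMP was detected by HTRF and pEC50 derived by logistic fitting.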

Q: How did the EC50 turn out when `CC(CCCC(=O)N(CCCCCO)C[C@H](O)[C@@H](O)[C@H](O)[C@H](O)CO)c1ccc(Cl)c(CNC2(c3cnccc3-c3ccccc3OC3CC3)CC2)c1` (stereo partly drawn) [Compound I-261, 5-(4-chloro-3-(((1-(4-(2-cyclopropoxyphenyl)pyridin-3-yl)cyclopropyl)amino)methyl)phenyl)-N-(5-hydroxypentyl)-N-((2S,3R,4R,5R)-2,3,4,5,6-pentahydroxyhexyl) hexanamide] was run?
A: < 100 nM

Q: How did the EC50 turn out when `Cc1ccc(C(C)CCCC(=O)N(C[C@H](O)[C@@H](O)[C@H](O)[C@H](O)CO)C(C)C)cc1CNC1(c2cnccc2-c2ccccc2OC2CC2)CC1` (stereo partly drawn) [Compound I-353, 5-{3-[({1-[4-(2-cyclopropoxyphenyl)pyridin-3-yl]cyclopropyl}amino)methyl]-4-methylphenyl}-N-[(2S,3R,4R,5R)-2,3,4,5,6-pentahydroxyhexyl]-N-(propan-2-yl)hexanamide] was run?
A: < 100 nM

Q: `Cc1ccc(SCCCCN(CCCS(C)(=O)=O)C(=O)[C@@H](O)[C@@H](O)[C@H](O)[C@@H](O)CO)cc1CNC1(c2cnccc2-c2ccccc2OC2CC2)CC1` [Compound I-548, (2S,3S,4R,5S)-N-[4-({3-[({1-[4-(2-cyclopropoxyphenyl)pyridin-3-yl]cyclopropyl}amino)methyl]-4-methylphenyl}sulfanyl)butyl]-2,3,4,5,6-pentahydroxy-N-(3-methanesulfonylpropyl) hexanamide] was tested. Which EC50 did it give?
A: 126 to 1000 nM

Q: How did the EC50 turn out when `CN(CCCCN(C)S(=O)(=O)c1ccc(Cl)c(COC2(c3cnccc3-c3ccccc3OC3CC3)CC2)c1)C(=O)[C@@H](O)[C@@H](O)[C@H](O)[C@@H](O)CO` [Compound I-461, (2S,3S,4R,5S)-2,3,4,5,6-pentahydroxy-N-methyl-N-{4-[N-methyl4-chloro-3-({1-[4-(2-cyclopropoxyphenyl)pyridin-3-yl]cyclopropoxy}methyl)benzenesulfonamido]butyl}hexanamide] was run?
A: < 100 nM

Q: How did the EC50 turn out when `CCNC(=O)CCN(C[C@H](O)[C@@H](O)[C@H](O)[C@H](O)CO)C(=O)CCCC(C)c1ccc(C)c(CNC2(c3cnccc3-c3ccccc3OC3CC3)CC2)c1` (stereo partly drawn) [Compound I-365, 5-{3-[({1-[4-(2-cyclopropoxyphenyl)pyridin-3-yl]cyclopropyl}amino)methyl]-4-methylphenyl}-N-[2-(ethylcarbamoyl)ethyl]-N-[(2S,3R,4R,5R)-2,3,4,5,6-pentahydroxyhexyl]hexanamide] was run?
A: 126 to 1000 nM

Q: Which EC50 does the source give for `COc1cc(Cl)c(COC2(c3cnccc3-c3ccccc3OC3CC3)CC2)cc1S(=O)(=O)N(C)C` [Compound I-730, 4-chloro-5-([1-[4-(2-cyclopropoxyphenyl)pyridin-3-yl]cyclopropoxy]methyl)-2-methoxy-N,N-dimethylbenzene-1-sulfonamide] here?
A: < 100 nM

Q: For `COCCN(C[C@@H](O)[C@H](O)[C@@H](O)[C@@H](O)CO)C(=O)CCCC(C)c1ccc(Cl)c(CNC2(c3cnccc3-c3ccccc3OC3CC3)CC2)c1` (stereo partly drawn) [Compound I-333, 5-{4-chloro-3-[({1-[4-(2-cyclopropoxyphenyl)pyridin-3-yl]cyclopropyl}amino)methyl]phenyl}-N-(2-methoxyethyl)-N-[(2R,3S,4S,5S)-2,3,4,5,6-pentahydroxyhexyl]hexanamide], which EC50 is on record?
A: < 100 nM

Q: `CC(=O)NCCCCN(CCCC(C)c1ccc(Cl)c(CNC2(c3cnccc3-c3ccccc3OC3CC3)CC2)c1)C(=O)[C@@H](O)[C@@H](O)[C@H](O)[C@@H](O)CO` (stereo partly drawn) [Compound I-290, (2S,3S,4R,5S)-N-(4-{4-chloro-3-[({1-[4-(2-cyclopropoxyphenyl)pyridin-3-yl]cyclopropyl}amino)methyl]phenyl}pentyl)-N-(4-acetamidobutyl)-2,3,4,5,6-pentahydroxyhexanamide] was tested. Which EC50 did it give?
A: < 100 nM

Q: With `CS(=O)(=O)CCN(CCCCCSc1ccc(Cl)c(COC2(c3cnccc3-c3ccccc3OC3CC3)CC2)c1)C(=O)[C@@H](O)[C@@H](O)[C@H](O)[C@@H](O)CO` [Compound I-603, (2S,3S,4R,5S)-N-(5-{[4-chloro-3-({1-[4-(2-cyclopropoxyphenyl)pyridin-3-yl]cyclopropoxy}methyl)phenyl]sulfanyl}pentyl)-2,3,4,5,6-pentahydroxy-N-(2-methanesulfonylethyl)hexanamide] as the molecule, how does the EC50 read?
A: < 100 nM

Q: How did the EC50 turn out when `O=C(NCCCCCSc1ccc(Cl)c(COC2(c3cnccc3-c3ccccc3OC3CC3)CC2)c1)N[C@H]1CC[C@@H](NC(=O)NC[C@H](O)[C@@H](O)[C@H](O)[C@H](O)CO)CC1` [Compound I-634, 1-(5-{[4-chloro-3-({1-[4-(2-cyclopropoxyphenyl)pyridin-3-yl]cyclopropoxy}methyl)phenyl]sulfanyl}pentyl)-3-[(1s,4s)-4-({[(2S,3R,4R,5R)-2,3,4,5,6-pentahydroxyhexyl]carbamoyl}amino)cyclohexyl]urea] was run?
A: < 100 nM

Q: Which EC50 does the source give for `CN(C[C@H](O)[C@@H](O)[C@H](O)[C@H](O)CO)C(=O)CC1CN(S(=O)(=O)c2ccc(Cl)c(COC3(c4cnccc4-c4ccccc4OC4CC4)CC3)c2)C1` [Compound I-447, 2-{1-[4-chloro-3-({1-[4-(2-cyclopropoxyphenyl)pyridin-3-yl]cyclopropoxy}methyl)benzenesulfonyl]azetidin-3-yl}-N-methyl-N-[(2S,3R,4R,5R)-2,3,4,5,6-pentahydroxyhexyl]acetamide] here?
A: < 100 nM

Q: For `O=C(O)CN1CCN(C(=O)CCCCc2cc(Cl)c(COC3(c4cnccc4-c4ccccc4OC4CC4)CC3)cc2Cl)CC1` [Compound I-88, 2-(4-(5-(2,5-dichloro-4-((1-(4-(2-cyclopropoxyphenyl)pyridin-3-yl)cyclopropoxy)methyl)phenyl)pentanoyl)piperazin-1-yl)acetic acid], which EC50 is on record?
A: < 100 nM

Q: With `COCCCN(CCCC(C)c1ccc(C)c(CNC2(c3cnccc3-c3ccccc3OC3CC3)CC2)c1)C(=O)[C@@H](O)[C@@H](O)[C@H](O)[C@@H](O)CO` (stereo partly drawn) [Compound I-303, (2S,3S,4R,5S)-N-(4-{3-[({1-[4-(2-cyclopropoxyphenyl)pyridin-3-yl]cyclopropyl}amino)methyl]-4-methylphenyl}pentyl)-2,3,4,5,6-pentahydroxy-N-(3-methoxypropyl)hexanamide] as the molecule, how does the EC50 read?
A: < 100 nM

Q: Which EC50 does the source give for `FC(F)(F)c1ccc(Cl)c(CNC2(c3cnccc3-c3ccccc3OC3CC3)CC2)c1` [Compound I-32, N-{[2-chloro-5-(trifluoromethyl)phenyl]methyl}-1-[4-(2-cyclopropoxyphenyl)pyridin-3-yl]cyclopropan-1-amine] here?
A: < 100 nM

Q: Which EC50 does the source give for `O=C([C@@H](O)[C@@H](O)[C@H](O)[C@@H](O)CO)N(CCCCCSc1ccc(Cl)c(CNC2(c3cnccc3-c3ccccc3OC3CC3)CC2)c1)CCOCCO` [Compound I-598, (2S,3S,4R,5S)-N-[5-({4-chloro-3-[({1-[4-(2-cyclopropoxyphenyl)pyridin-3-yl]cyclopropyl}amino)methyl]phenyl}sulfanyl)pentyl]-2,3,4,5,6-pentahydroxy-N-[2-(2-hydroxyethoxy)ethyl]hexanamide] here?
A: < 100 nM

Q: For `O=C([C@@H](O)[C@@H](O)[C@H](O)[C@@H](O)CO)N(CCCCc1cc(Cl)c(COC2(c3cnccc3-c3ccccc3OC3CC3)CC2)cc1Cl)C1CCOCC1` [Compound I-216, (2S,3S,4R,5S)-N-{4-[2,5-dichloro-4-({1-[4-(2-cyclopropoxyphenyl)pyridin-3-yl]cyclopropoxy}methyl)phenyl]butyl}-2,3,4,5,6-pentahydroxy-N-(oxan-4-yl)hexanamide], which EC50 is on record?
A: 126 to 1000 nM

Q: Which EC50 does the source give for `Cc1cc(CNC2(c3cnccc3-c3ccccc3OC3CC3)CC2)c(Cl)cc1CCCCC(=O)NC[C@H](O)[C@@H](O)[C@H](O)[C@H](O)CO` [Compound I-142, 5-{5-chloro-4-[({1-[4-(2-cyclopropoxyphenyl)pyridin-3-yl]cyclopropyl}amino)methyl]-2-methylphenyl}-N-[(2S,3R,4R,5R)-2,3,4,5,6-pentahydroxyhexyl]pentanamide] here?
A: < 100 nM

Q: `CN(CCCCCNC(=O)N[C@@H](CO)[C@@H](O)[C@H](O)[C@H](O)CO)S(=O)(=O)c1ccc(Cl)c(COC2(c3cnccc3-c3ccccc3OC3CC3)CC2)c1` (stereo in doubt) [Compound I-405, 1-{5-[N-methyl4-chloro-3-({1-[4-(2-cyclopropoxyphenyl)pyridin-3-yl]cyclopropoxy}methyl)benzenesulfonamido]pentyl}-3-[(2S,3R,4S,5R)-1,3,4,5,6-pentahydroxyhexan-2-yl]urea] was tested. Which EC50 did it give?
A: < 100 nM

Q: For `[2H]C([2H])(NC(=O)N[C@@H](CO)[C@@H](O)[C@H](O)[C@H](O)CO)C([2H])([2H])C([2H])([2H])C([2H])([2H])N(C)S(=O)(=O)c1ccc(Cl)c(COC2(c3cnccc3-c3ccccc3OC3CC3)CC2)c1` [Compound I-735, 1-(4-[N-methyl[4-chloro-3-([1-[4-(2-cyclopropoxyphenyl)pyridin-3-yl]cyclopropoxy]methyl)benzene]sulfonamido](d8)butyl)-3-[(2S,3R,4S,5R)-1,3,4,5,6-pentahydroxyhexan-2-yl]urea], which EC50 is on record?
A: < 100 nM

Q: Which EC50 does the source give for `O=C(NCCCCCSc1ccc(Cl)c(COC2(c3cnccc3-c3ccccc3OC3CC3)CC2)c1)NC[C@H](O)[C@@H](O)[C@H](O)[C@H](O)CO` [Compound I-488, 1-(5-[[4-Chloro-3-([1-[4-(2-cyclopropoxyphenyl)pyridin-3-yl]cyclopropoxy]methyl)phenyl]sulfanyl]pentyl)-3-[(2S,3R,4R,5R)-2,3,4,5,6-pentahydroxyhexyl]urea] here?
A: < 100 nM

Source: patent US12084472B2 (Ardelyx, Inc., priority 2015, dated 2024)
